# Results as given in US5092876A, “Cell attachment peptides derived from amyloid P component” (The United States of America as represented by the …, priority 1989, dated 1992).
# Tested on: cells
# Experiment: Cell attachment assay, peptides/proteins from amyloid P component coated on plates (Table I)
# Assay type: cell-based
# Conditions: plates coated with peptide/protein (20 uM); average ± SEM
# Description: All cell types used were obtained from American Type Culture Collection, Rockville, Md. and were maintained in Dulbecco's modified Eagle's medium (DMEM) supplemented with 10% fetal calf serum (FCS). The cells were grown to approximately 80% confluency in Falcon T75 flasks. For cell attachment assays, cells were washed with PBS (pH 7.4), and then detached from the tissue culture flasks with 0.025% trypsin, 0.025% EDTA.
# The cells were sedimented by low speed centrifugation, suspended in serum-free Eagle's minimal essential medium (EMEM) containing 0.05% BSA and used immediately in the cell attachment assays.
# Cell attachment was assayed as described by Graf et al., Biochemistry 26, 6896-6900 (1987). 24 well plastic culture plates (Linbro, Flow Laboratories, Inc., Va.) were coated with the desired peptides at 25° C. for 16 h in 0.1M bicarbonate buffer, pH 9.6. Exposed non-specific cell attachment sites were blocked by coating the wells with 3% BSA for 1 h at 25° C. Cells, (1.1×10^5), prepared as described above, were added to each well and incubated at 37° C. for 1 h in a humidified incubator with 5% CO2 --95% air mixture. At the end of incubation, plates were gently washed twice with PBS to remove unattached cells. Attached cells were treated with trypsin and electronically counted. […] Each peptide was tested for cell attachment in six separate experiments.
# Tissue culture plates (obtained from Linbro, Flow Laboratories, Inc., Va.) were coated with peptides or proteins at […]. Before coating (a) AP was denatured with 6M Guanidine HCl (GnHCl) for 2 h at 4° C. GnHCl was removed by extensive dialysis against 0.1M bicarbonate buffer, pH 9.6 at 4° C.; (b) AP was heat-denatured at 100° C. for 15 min.; (c) native AP was reduced and the free sulfhydryl groups were blocked by carboxymethylation, and (d) heat-denatured AP was treated as in (c). The values are expressed as the average ± SEM, and are reported hereinbelow in Table I.
row,Substance,No. attached cells
1,"Native SAP: Amyloid P component isolated from normal human serum, 125 kDa glycoprotein",3125 ± 348
2,Reduced (heat-denatured SAP)/carboxymethylated (d): heat-denatured AP reduced and carboxymethylated as in (c),3436 ± 396
3,"GnHCl-Denatured SAP (a): AP denatured with 6M Guanidine HCl for 2 h at 4° C., GnHCl removed by dialysis",3835 ± 424
4,Heat-Denatured SAP (b): AP heat-denatured at 100° C. for 15 min.,3926 ± 552
5,Reduced (native)/carboxy-methylated (c): native AP reduced and the free sulfhydryl groups blocked by carboxymethylation,2558 ± 428
